From patent publication US12285404B2, “Prevention of rosacea inflammation” (The Regents of the University of California, priority 2013, dated 2025)
Blank lines part the entries; values can stand above or below the substance they belong to.

Experiments:
[1] = system: WT (C57BL/6) and MC-deficient (KitWsh-/-) mice; test: Rosacea mouse model: intradermal Cath LL-37 in WT and MC-deficient (KitWsh-/-) mice; format: in vivo
Experimental: (a) Human biopsy samples from healthy and rosacea subjects were assessed for chymase and Mmp-9 mRNA expressions (n=6). (b) Photographs of the rosacea mouse model. 24 hrs after removal of the hair, the back skins of wild type (C57BL/6) and MC-deficient (KitWsh^−/−) mice were injected intradermally with 50 μl of 320 μM Cath LL-37 or filtered PBS twice a day for 2 days. Clinical observation was carried out for 72 hours. (c) Skins from WT, WT MC reconstituted KitWsh^−/− and KitWsh^−/− mice were challenged as indicated and harvested after 72 hours of observation. Mmp-9 mRNA expression in each sample was assessed by RT-PCR. (d) Assessment of MMP protease activities in WT mouse skin following challenge with PBS or the indicated amounts of Cath LL-37. (e) Skin biopsies from WT or KitWsh^−/− mice were analyzed by RT-PCR for the expression of MC proteases at 0, 1, 4, and 24 hrs after Cath LL-37 challenge. Statistics: Mann Whitney test, one-way and two-way ANOVA*p<0.05, **p<0.01, ***p<0.001 (1b-1e: n=3).
(§1) (a) Bone marrow derived mouse MCs were challenged in vitro with 10 ug/mL Cath LL-37 or PBS as indicated. The cells were harvested at different time points and the mRNA was extracted and assessed by RT-PCR for tryptase, chymase and Mmp-9 expression. (b) Cell culture supernatant from bone marrow derived MCs was taken after 24 hrs of Cath LL-37 challenge. MMP and MMP-9 specific activities were measured by assessing cleavage of MMP substrate in the presence or absence of a specific MMP-9 inhibitor, as indicated. (c) Bone marrow derived MCs were treated, as indicated, for 24 hrs before collecting supernatants and assessing degranulation percentage by measuring β-hexosaminidase release. (d) Cultured mouse MCs were challenged with the indicated concentrations of Cath LL-37 for 24 or 48 hrs before supernatants were collected and the amounts of IL-6 secretion were measured. (e) Il-6 mRNA expression was measured by RT-PCR in mouse skin biopsies after 0, 1, 4, and 24 hrs of Cath LL-37 challenge in WT and MC deficient mice, as indicated. Statistics: t-test ***p<0.001 (n=3).
Mast cell deficient (C57BL/6-KitWsh^−/−) mice were bred. KitWsh^−/− mice bearing the W-sash (Wsh) inversion mutation have MC deficiency, but lack anemia and sterility. […] Wild type mice (C57BL/6) were utilized as control. Mice were shaved 24 hrs before intradermal injection with 50 μl of 50 μM or 320 μM of Cath LL-37 or filtered PBS (n=3), twice a day for 2 days and skin biopsies were taken after 72 hours of observation. Total RNA was extracted and purified by RNeasy Mini Kit (QIAGEN science). For the time course observation, skin biopsies of WT and MC deficient mice were taken at 1, 4, and 24 hrs after Cath LL-37 injection.
BMMC reconstitution in KitWsh−/− mice. 4×10^6 cells of C57BL/6 mature BMMCs were diluted in filtered PBS and injected into the shaved back skin of 6 week old C57BL/6− KitWsh^−/− mice (400 μl; 8×50 μl injections) intradermally. After 6 weeks, MCs were confirmed as resident cells in skin by toluidine blue staining.
(§2) Total-MMP activities were determined by following previously reported study (Kanada et al., 2012). To determine MMP-9 activity, MMP-9 specific inhibitor I (Thermo Fisher Scientific, Chicago, IL) was used.
(§3) cDNA was synthesized from RNA using the iScript cDNA Synthesis Kit (BioRad, Hercules, CA) according to the manufacturer's protocol. cDNA was normalized using a NanoDrop spectrophotometer (Thermo Fisher Scientific Inc.). Probes from TagMan Gene Expression Assays (Applied Biosystems ABI, Foster City, CA) were used to analyze gene expressions with following to the manufacturer's instructions. Gapdh mRNA was used as an internal control to validate RNA for each sample. mRNA expression was calculated as the relative expression to Gapdh mRNA, and all data are presented as fold change of each control.
Cath LL-37 was injected intradermally into mast cell deficient mice (KitWsh^−/−) and compared the resulting inflammation with Wild Type (WT) mice. […]

[2] = system: bone marrow derived mouse MCs; test: In vitro Cath LL-37 challenge of bone marrow derived mouse MCs; format: cell-based
Experimental: as §1
Primary MCs were generated from mouse bone marrow and cultured as previously written (Wang et al., 2011). MCs were cultured in Stemline® II Hematopoietic Stem Cell Expansion Medium (Sigma-Aldrich).
as §2, §3
Degranulation percentage was assessed by measuring the activity of β-hexosaminidase in the supernatants as previously described (Wang et al., 2012).
ELISA (ELISA MAX™ Deluxe; BioLegend, San Diego, CA) was utilized to determine mouse IL-6 according to the manufacturer's instructions, normalized to total protein content.
To confirm that mast cells are responsive to direct Cath LL-37 stimulation, bone marrow derived mouse MCs were stimulated with different concentrations of Cath LL-37 at different time points. […] MMP-9 protease activity in the culture medium of MCs stimulated with Cath-LL37 for 24 hrs was confirmed by fluorescence enzymatic activity assay using an MMP specific substrate and an MMP-9 specific inhibitor (FIG. 2b).

WT and KitWsh-/- mice = test: Neuropeptide experiment: intradermal neuropeptide in WT and KitWsh-/- mice, skin mRNA by RT-PCR; format: in vivo, mouse; details: 100 μL of 1 μM intradermally, 6 hrs
Experimental: WT and KitWsh^−/− mice were injected with PBS or 100 μL of 1 μM neuropeptide (SP, substance P; ADM-2, adrenomedullin-2; PACAP, pituitary adenylate cyclase-activating peptide) intradermally, as indicated. Skin biopsies were harvested 6 hrs after injection and mRNA expressions of (a) proteases (chymase, tryptase, Mmp-9 and Mmp-1) and (b) proinflammatory cytokines (Cxcl2 and Tnf-α) were assessed by RT-PCR. Statistics: two-way ANOVA*p<0.05, **p<0.01, ***p<0.001 (n=3).
For the neuropeptide experiment, 100 μL of 1 μM neuropeptide or PBS was injected into mice intradermally. Skin biopsies were taken 6 hrs after injection.
as §3
Rosacea flare-ups are frequently initiated by face flushing due to neuronal dysfunction and increased release of pituitary adenylate cyclase-activating peptide (PACAP) (Schwab et al., 2011). To investigate whether neuropeptides (NPs) require MC activation for the development of the inflammatory response in rosacea, 100 μL of 1 μM NP (substance P: SP, adrenomedullin-2: ADM-2, PACAP) was injected intradermally into WT and MC deficient mice. […] Moreover, these same MC enzymes can further increase the levels of free Cath LL-37 and amplify the inflammatory response.

[3] = MC-deficient mice after Cath LL-37
[4] = WT mice, 0, 1, 4, 24 hrs after Cath LL-37
[5] = Cath LL-37 stimulated MCs, at 5 hrs
[6] = Cath LL-37 stimulated MCs, at 5 hrs, p<0.001

chymase expression in skin (time course) [1, 3]: not detectable
tryptase expression in skin (time course) [1, 3]: not detectable
chymase expression in skin (time course) [1, 4]: expressed immediately after injection
tryptase expression in skin (time course) [1, 4]: expressed immediately after injection
Substance: Cath LL-37: LL-37 Cathelicidin antimicrobial peptide, C-terminal 37 amino acids of human cathelicidin
clinical end point observation of skin ([1]; KitWsh-/- mice, intradermal Cath LL-37, at 72 hrs): did not develop any rosacea-like features
IL-6 mRNA expression in skin ([1]; WT mice following Cath LL-37 challenge): Increased
MMP activity in skin ([1]; WT mice, 50 μM and 320 μM Cath LL-37 injected): increases in a dose dependent manner
clinical end point observation of skin ([1]; WT mice, intradermal Cath LL-37 twice a day for 2 days, at 72 hrs): rosacea-like inflammation
Mmp-9 mRNA expression in skin from MC deficient mice compared with WT and WT MC-reconstituted KitWsh-/- mice ([1]; after peptide challenge, 72 hours, p<0.01 vs WT, p<0.05 vs reconstituted): significantly lower
IL-6 mRNA expression in skin ([1]; mast cell deficient mice following Cath LL-37 challenge): not in mast cell deficient mice
secreted IL-6 (ELISA) ([2]; 24 and 48 hrs of stimulation, Cath LL-37 20 nM and 40 nM): high levels
Klk5 mRNA expression [2, 5]: not detectable
Klk6 mRNA expression [2, 5]: not detectable
Mmp-1a mRNA expression [2, 5]: not detectable
Mmp-9 mRNA expression [2, 6]: significantly higher
Tryptase mRNA expression [2, 6]: significantly higher
chymase mRNA expression [2, 6]: significantly higher
MMP-9 protease activity in the culture medium ([2]; MCs stimulated with Cath-LL37 for 24 hrs, MMP specific substrate and MMP-9 specific inhibitor): confirmed
MC degranulation (β-hexosaminidase release) ([2]; low concentration of Cath LL-37 (20 nM), supernatants after 24 hrs): able to induce degranulation

Tryptase mRNA expression in skin (WT and KitWsh-/- mice; WT mice, p<0.01): dramatically increased
Chymase mRNA expression in skin (WT and KitWsh-/- mice; WT mice, p<0.05): significantly increased
Substance: pituitary adenylate cyclase-activating peptide [PACAP]
Tnf-a mRNA expression in skin (WT and KitWsh-/- mice; MC deficient mice): not in MC deficient mice
Cxcl2 mRNA expression in skin (WT and KitWsh-/- mice; WT mice, p<0.01): significantly increased
Tnf-a mRNA expression in skin (WT and KitWsh-/- mice; WT mice, p<0.01): significantly increased
Mmp-1 mRNA expression in skin (WT and KitWsh-/- mice; WT mice, p<0.05): significantly increased
Mmp-9 mRNA expression in skin (WT and KitWsh-/- mice; WT mice, p<0.05): significantly increased
